# Test results published in patent publication US20260124226A1 (priority 2023, published 2026).
# Where “and” joins values, the source holds several entries; their conditions need not be identical. Equal values may be shown once. Read-outs that look alike come from different tables or passages of the source.
# Legend:
# MERS = experiment: microbe, parasite or virus in culture; assay type: cell-based, MERS coronavirus; details: Middle East respiratory syndrome-related coronavirus
# Flu B = experiment: microbe, parasite or virus in culture; assay type: cell-based, influenza B virus
# Flu A H5N1 (High Path) = assay type: cell-based, influenza A virus
# Flu A H3N2 = experiment: microbe, parasite or virus in culture; assay type: cell-based, influenza A virus
# [1] = system: Severe fever thrombocytopenia syndrome virus; experiment: organism not typed; assay type: cell-based; details: Vero
# Influenza A H1N1 = experiment: microbe, parasite or virus in culture; assay type: cell-based, influenza A virus
# DENV2 = experiment: microbe, parasite or virus in culture; assay type: cell-based, Dengue virus 2; details: Dengue virus
# [2] = system: Lymphocytic choriomeningitis virus; experiment: microbe, parasite or virus in culture; assay type: cell-based; details: Mammarenavirus choriomeningitidis, Vero
# La Crosse virus = experiment: microbe, parasite or virus in culture; assay type: cell-based
# WEEV = experiment: microbe, parasite or virus in culture; assay type: cell-based, Western equine encephalitis virus
# in vitro [3] = details: African green monkey
# Tacaribe virus = experiment: microbe, parasite or virus in culture; assay type: cell-based
# Enterovirus-68 = experiment: microbe, parasite or virus in culture; assay type: cell-based, EV-D68
# in vitro [4] = details: human
# Junin virus = experiment: microbe, parasite or virus in culture; assay type: cell-based
# in vitro [5] = details: African green monkey; remark: listed apart in the source
# Plasma stability [6] = experiment: Plasma stability
# in vitro [7] = details: human; remark: listed apart in the source
# Usutu virus = experiment: microbe, parasite or virus in culture; assay type: cell-based; details: Vero 76
# Flu A H7N9 (High Path) = experiment: microbe, parasite or virus in culture; assay type: cell-based, influenza A virus
# [8] = Liver microsome stability; details: both, human, microsomes, pH 7.4
# Punta Toro virus = experiment: microbe, parasite or virus in culture; assay type: cell-based
# [9] = Liver microsome stability; details: CD-1, mouse, microsomes
# ZIKV = experiment: microbe, parasite or virus in culture; assay type: cell-based, Zika virus; details: for EC50: Vero 76 cells
# Marpol virus = experiment: organism not typed; assay type: cell-based
# RVFV = experiment: microbe, parasite or virus in culture; assay type: cell-based, Rift Valley fever virus
# EEEV = experiment: microbe, parasite or virus in culture; assay type: cell-based, Eastern equine encephalitis virus; details: Eastern equine encephalitis virus
# HRV-14 = experiment: microbe, parasite or virus in culture; assay type: cell-based, human rhinovirus; details: Rhinovirus B, HRV14
# CHIKV = experiment: microbe, parasite or virus in culture; assay type: cell-based, Chikungunya virus
# EBOV = experiment: microbe, parasite or virus in culture; assay type: cell-based, Ebola virus; details: Zaire ebolavirus, Vero
# Plasma stability [10] = experiment: Plasma stability; remark: listed apart in the source
# Poliovirus = experiment: microbe, parasite or virus in culture; assay type: cell-based
# [11] = Liver microsome stability; details: male, Sprague-Dawley, rat, microsomes, pH 7.4
# POWV = experiment: microbe, parasite or virus in culture; assay type: cell-based, Powassan virus
# in vitro [12] = details: Syrian golden hamster
# Vero cells = details: African green monkey
# Parainfluenza virus 3 = experiment: organism not typed; assay type: cell-based
# Heartland virus = experiment: microbe, parasite or virus in culture; assay type: cell-based; details: Vero
# Pichinde virus = experiment: microbe, parasite or virus in culture; assay type: cell-based; details: Vero
# Flu A H5N1 (Low Path) = experiment: microbe, parasite or virus in culture; assay type: cell-based, influenza A virus
# Plasma stability [13] = experiment: Plasma stability; remark: listed apart in the source
# VEEV = experiment: microbe, parasite or virus in culture; assay type: cell-based, Venezuelan equine encephalitis virus
# in vitro [14] = details: dog
# [15] = male, Sprague-Dawley, rat, pH 7.4
# [16] = CD-1, mouse
# [17] = male, CD-1, mouse
# [18] = male, Sprague-Dawley, rat
# [19] = both, human, pH 7.4
# [20] = both, human
# physchem [21] = details: simulated gi fluid, pH 5.2
# [22] = mouse, in vivo, po, 15 mg/kg
# ENTV71 = experiment: microbe, parasite or virus in culture; assay type: cell-based, EV-A71; details: Enterovirus A, Vero 76
# [23] = female, ICR (CD-1), mouse, in vivo, po
# SARS-CoV-2 = experiment: microbe, parasite or virus in culture; assay type: cell-based; details: Severe acute respiratory syndrome coronavirus 2, Vero C1008
# physchem [24] = details: simulated gi fluid, pH 1.3
# in vitro [25] = details: human; remark: listed apart in the source
# RSV = experiment: microbe, parasite or virus in culture; assay type: cell-based; details: human respiratory syncytial virus, MA104
# YFV = experiment: microbe, parasite or virus in culture; assay type: cell-based; details: Yellow fever virus, Huh-7
# WNV = experiment: microbe, parasite or virus in culture; assay type: cell-based; details: West Nile virus, Vero 76
# MEV = experiment: microbe, parasite or virus in culture; assay type: cell-based; details: Measles morbillivirus, Vero 76
# [26] = Western equine encephalitis virus, Vero 76
# [27] = Mammarenavirus tacaribeense, Vero
# [28] = Rift Valley fever virus, Huh-7, RVFV strain MP-12, Huh7 cells
smiles,measurement,setting,value
O=c1ccn([C@@H]2O[C@](F)(COP3(=O)OCc4ccccc4O3)[C@@H](O)[C@H]2O)c(=O)[nH]1 (stereo partly drawn) [EIDD-2838],EC50,MERS; Vero 76,1.98 µM
same,EC50,MERS; Vero C1008,2.53 µM
same,EC50,Flu B,0.74 µM and 0.67 µM
same,EC50,"Flu B; Influenza B virus, MDCK",0.78 µM
same,EC50,Flu A H5N1 (High Path),11.3 µM
same,EC50,Flu A H3N2,0.87 µM
same,EC50,"Flu A H3N2; Influenza A virus, H3N2, MDCK",0.97 µM
same,EC90,[1],7.82 µM
same,EC50,Influenza A H1N1,1.2 µM and 1.59 µM and 1.98 µM
same,EC50,"Influenza A H1N1; Influenza A virus, H1N1, MDCK",2.3 µM
same,EC50,"DENV2; DENV2, Vero 76",> 230 µM
same,EC90,"DENV2; DENV2, Vero 76",29.9 µM
same,EC90,[2],4.6 µM
same,EC50,La Crosse virus,0.69 µM
same,EC90,"La Crosse virus; La Crosse virus, Vero 76",0.12 µM
same,EC50,WEEV,5.75 µM and 5.98 µM
same,EC50,WEEV; [26],7.82 µM
same,EC90,WEEV; [26],24.2 µM
same,CC50,in vitro [3],> 230 µM
same,EC50,Tacaribe virus,0.046 µM
same,EC90,Tacaribe virus; [27],0.046 µM
same,EC50,"Enterovirus-68; Enterovirus D, RD, Enterovirus-68, RD cells",7.36 µM
same,EC50,"Enterovirus-68; Enterovirus-68, RD cells",7.82 µM
same,CC50,in vitro [4],> 230 µM
same,EC50,Junin virus,0.37 µM
same,EC90,"Junin virus; Mammarenavirus juninense, Vero",0.023 µM
same,CC50,in vitro [5],> 230 µM
same,half-life at 1 μM,"Plasma stability [6]; both, human, plasma",12 min
same,CC50,in vitro [7],> 230 µM
same,EC50,Usutu virus,6.9 µM
same,EC90,Usutu virus,25.8 µM
same,EC50,Flu A H7N9 (High Path),4.37 µM
same,EC50,"Flu A H7N9 (High Path); Influenza A virus, H7N9, MDCK",5.29 µM
same,half-life at 1 μM,[8],7 min
same,EC50,Punta Toro virus,5.75 µM
same,EC50,"Punta Toro virus; Punta Toro virus, Vero 76",6.21 µM
same,half-life at 1 μM,[9],7 min
same,EC50,ZIKV; ZIKV,7.82 µM and 9.2 µM
same,EC90,"ZIKV; Zika virus, Vero 76",43.7 µM
same,EC50,"ZIKV; Zika virus, Vero 76, ZIKV",8.28 µM
same,EC50,Marpol virus,19.1 µM
same,EC50,Marpol virus; Vero,25.3 µM
same,EC50,RVFV,3.68 µM and 4.14 µM
same,EC90,EEEV; Vero 76,28.4 µM
same,EC50,HRV-14,> 230 µM
same,EC50,"CHIKV; CHIKV, Vero76 cells",3.68 µM and 3.91 µM
same,EC90,"CHIKV; Chikungunya virus, Vero 76",23.9 µM
same,EC50,"CHIKV; Chikungunya virus, Vero 76, CHIKV, Vero76 cells",2.3 µM
same,EC50,EBOV,150 µM
same,half-life at 1 μM,"Plasma stability [10]; male, CD-1, mouse, plasma",1 min
same,EC50,Poliovirus,8.74 µM
same,EC50,"Poliovirus; Enterovirus C, Vero 76",7.36 µM
same,half-life at 1 μM,[11],8 min
same,EC50,POWV,98.9 µM
same,EC50,"POWV; Powassan virus, BHK",75.9 µM
same,CC50,in vitro [12],> 230 µM
same,CC50,Vero cells,213 µM
same,EC50,Parainfluenza virus 3,78.2 µM
same,EC50,Parainfluenza virus 3; MA104,73.6 µM
same,EC90,Heartland virus,8.05 µM
same,EC90,Pichinde virus,0.55 µM
same,EC50,Flu A H5N1 (Low Path),0.71 µM
same,EC50,"Flu A H5N1 (Low Path); Influenza A virus, H5N1, MDCK",0.78 µM
same,half-life at 1 μM,"Plasma stability [13]; male, Sprague-Dawley, rat, plasma",< 1 min
same,EC50,VEEV,8.51 µM
same,EC50,"VEEV; Venezuelan equine encephalitis virus, Vero 76",8.28 µM
same,CC50,in vitro [14],> 230 µM
"CC(C)[C@H](N)C(=O)OC[C@@]1(F)O[C@@H](n2ccc(=O)[nH]c2=O)[C@H](O)[C@@H]1O [EIDD-2971, [(1S)-1-[[(2S,3S,4R,5R)-5-(2,4-dioxopyrimidin-1-yl)-2-fluoro-3,4-dihydroxy-tetrahydrofuran-2-yl]methoxycarbonyl]-2-methyl-propyl]ammonium chloride]",half-life,[15]; microsomes,33 min
same,max [2749],[15],0.203 µM
same,max [2749],[16],0.305 µM
same,half-life,[16]; microsomes,11 min
same,max [2749],[17],0.267 µM
same,max [2749],[18],0.155 µM
same,half-life,[19]; microsomes,38 min
same,max [2749],[19],0.179 µM
same,half-life,"Plasma stability [6]; human plasma, drug 1.00 μM, 37° C.",81 min
same,max [2749],[20],0.0152 µM
same,half-life,"Plasma stability [10]; mouse plasma, drug 1.00 μM",59 min
same,half-life,"Plasma stability [13]; rat plasma, drug 1.00 μM",50 min
"CC(C)OC(=O)[C@H](C)N[P@](=O)(OC[C@@]1(F)O[C@@H](n2ccc(=O)[nH]c2=O)[C@H](O)[C@@H]1O)Oc1ccccc1 [EIDD-3232, isopropyl ((S)-(((2S,3S,4R,5R)-5-(2,4-dioxo-3,4-dihydropyrimidin-1(2H)-yl)-2-fluoro-3,4-dihydroxytetrahydrofuran-2-yl)methoxy)(phenoxy)phosphoryl)-L-alaninate]",EC50,MERS; Vero 76,> 32 µM
same,half-life,physchem [21],> 1440 min
same,EC50,"Influenza A H1N1; Influenza A virus, H1N1, MDCK",1.3 µM
same,EC90,"Influenza A H1N1; Influenza A virus, H1N1, MDCK",1.5 µM
same,EC50,"DENV2; DENV2, Huh-7",4.2 µM
same,EC90,"DENV2; DENV2, Huh-7",19 µM
same,EC90,Tacaribe virus; [27],3.9 µM
same,EC50,"Tacaribe virus; Mammarenavirus tacaribeense, Vero, Tacaribe virus strain TRVL 11573, Vero cells",2.8 µM
same,EC50,"Enterovirus-68; Enterovirus D, RD",18 µM
same,CC50,in vitro [4],> 32 µM
same,EC90,"Junin virus; Mammarenavirus juninense, Vero",2.2 µM
same,EC50,"Junin virus; Mammarenavirus juninense, Vero, Junin virus strain Candid #1, Vero cells",2 µM
same,Tolerability Summary,[22],Class D
same,CC50,in vitro [7],> 32 µM
same,EC50,ENTV71,> 32 µM
same,Cmax,[23],2940 ± 826 nM
same,EC50,SARS-CoV-2,> 17 µM
same,half-life,physchem [24],288 min
same,CC50,in vitro [25],> 32 µM
same,EC50,RVFV; [28],6.4 µM
same,EC90,RVFV; [28],7.4 µM
same,EC50,"EEEV; Vero 76, EEEV strain FL39-939, Vero 76 cells",> 32 µM
same,EC50,RSV,> 32 µM
same,EC50,HRV-14,> 32 µM
same,EC50,"CHIKV; Chikungunya virus, Huh-7",5.7 µM
same,EC90,"CHIKV; Chikungunya virus, Huh-7",4.5 µM
same,EC50,YFV,15 µM
same,EC50,"Poliovirus; Enterovirus C, Vero 76, Poliovirus strain Mahoney, Vero 76 cells",> 32 µM
same,EC50,"POWV; Powassan virus, BHK-21, POWV(Lineage 1) strain LB, BHK-21 cells",> 32 µM
same,CC50,in vitro [12],> 32 µM
same,EC50,Parainfluenza virus 3; MA104,> 32 µM
same,EC50,WNV,> 32 µM
same,EC50,"VEEV; Venezuelan equine encephalitis virus, Vero 76, VEEV strain TC-83, Vero 76 cells",> 32 µM
same,EC50,MEV,9.6 µM
same,CC50,in vitro [14],> 32 µM
